From patent EP0378881B1, “Synthetic peptides and their use as universal carriers for the preparation of immunogenic conjugates suitable for the development of synthetic vaccines” ([…] S.p.A., priority 1989, dated 1993)
Entries after “also recorded” stand apart in the source; their conditions may differ. Read-outs that look alike come from different tables or passages of the source.

Columns and labels:
[1] = system: T-cellular clones which are specific for TT=2; type: cell-based, human
[2] = system: T-cellular clones which are specific for TT=2; type: cell-based, human; remark: listed apart in the source
[3] = system: Mononucleated cells of peripheral blood (PBMC); type: cell-based, human
[4] = system: anti-CSP antibody response; details: cited from earlier work

Gln-Tyr-Ile-Lys-Ala-Asn-Ser-Lys-Phe-Ile-Gly-Ile-Thr-Glu (QYIKANSKFIGITE; printed: Gln-Tyr-Ile-Lys-Ala-Asn-Ser-Lys-Phe-Ile-Gly-Ile-Thr-Glu) [TT=2, synthetic peptide corresponding to TT segment 830-843]
DR alleles in association with which the clone recognizes TT=2 [1]: DR1, 2, 4w4 and 7; also recorded: DR5JVM and 6
DR alleles that can be used as restriction molecules [1]: DR1-9, 4 x 4, 5JVM and DRw52b
concentrations of the peptide at which all the clones react (dose-response plot) [1]: 0.1 to 2 µM
isotype of the II-class molecules recognized by the clones [1]: restricted DRs
proliferation of the isolated clones in response to the antigen [1]: proliferate responsively
minimum antigenic sequence (epitope) recognized by the T-cells [2]: single 831-842 epitope
TT=2-specific cells as share of all the T cells which were specific for the Tetanus Toxoid (TT) [3]: ≤ 5%

H-(Asn-Ala-Asn-Pro)n
anti-CSP antibody response ([4]; CBA/ca mice): not able to induce
anti-CSP antibody response ([4]; DBA/2 mice): not able to induce

NANP₄₀: polymer (Asn-Ala-Asn-Pro)₄₀ obtained by polymerizing the activated monomer
responder status of the mouse strain ([4]; C57/8L/6 mice): natural responders
responder status of the mouse strain ([4]; CB4/ca mice): non-responders
responder status of the mouse strain ([4]; DBA/2 mice): non-responders
